Laboratory results as given in patent publication US8877748B2, “Heterocyclic fused anthraquinone derivatives, manufacturing method and pharmaceutical composition using thereof” (National Defense Medical Center, priority 2012, dated 2014).

Experiments:
[1] = system: PC-3 prostate cancer cell line; assay: SRB assay cell viability, PC-3 prostate cancer cell line; format: cell-based, human; details: Homo sapiens, PC-3 prostate cancer cell line, Table II prints no unit, μM printed, read-out: SRB assay: 50% inhibition of cancer cell proliferation of sample concentration (IC50) of PC-3 prostate cancer cell line
[2] = system: CCRF-CEM; assay: NCI screening platform one-dose single concentration screening, leukemia CCRF-CEM; format: cell-based, human; details: 10 μM
[3] = system: HL-60, TB; assay: NCI one-dose screening, leukemia HL-60, TB; format: cell-based, human; details: 10 μM
[4] = system: MOLT-4; assay: NCI one-dose screening, leukemia MOLT-4; format: cell-based, human; details: 10 μM
[5] = system: SR; assay: NCI one-dose screening, leukemia SR; format: cell-based, human; details: 10 μM
[6] = system: PRMI-8226 cell line; assay: NCI one-dose screening, leukemia PRMI-8226; format: cell-based, human; details: 10 μM
[7] = system: K562cell line; assay: NCI one-dose screening, leukemia K562; format: cell-based, human; details: 10 μM
[8] = system: EKVX; assay: NCI one-dose screening, non-small cell lung cancer EKVX; format: cell-based, human; details: 10 μM
[9] = system: HOP-62; assay: NCI one-dose screening, non-small cell lung cancer HOP-62; format: cell-based, human; details: 10 μM
[10] = system: HOP-92; assay: NCI one-dose screening, non-small cell lung cancer HOP-92; format: cell-based, human; details: 10 μM
[11] = system: NCI-H226; assay: NCI one-dose screening, non-small cell lung cancer NCI-H226; format: cell-based, human; details: 10 μM
[12] = system: NCI-H23; assay: NCI one-dose screening, non-small cell lung cancer NCI-H23; format: cell-based, human; details: 10 μM
[13] = system: NCI-H322M; assay: NCI one-dose screening, non-small cell lung cancer NCI-H322M; format: cell-based, human; details: 10 μM; Non-small cell lung cancer
[14] = system: NCI-H460; assay: NCI one-dose screening, non-small cell lung cancer NCI-H460; format: cell-based, human; details: 10 μM
[15] = system: NCI-H522; assay: NCI one-dose screening, non-small cell lung cancer NCI-H522; format: cell-based, human; details: 10 μM
[16] = system: A549/ATCC; assay: NCI one-dose screening, non-small cell lung cancer A549/ATCC; format: cell-based, human; details: 10 μM
[17] = system: COLO 205; assay: NCI one-dose screening, colon cancer COLO 205; format: cell-based, human; details: 10 μM
[18] = system: HCC-2998; assay: NCI one-dose screening, colon cancer HCC-2998; format: cell-based, human; details: 10 μM
[19] = system: HCT-116; assay: NCI one-dose screening, colon cancer HCT-116; format: cell-based, human; details: 10 μM
[20] = system: HCT-15; assay: NCI one-dose screening, colon cancer HCT-15; format: cell-based, human; details: 10 μM
[21] = system: KM12; assay: NCI one-dose screening, colon cancer KM12; format: cell-based, human; details: 10 μM
[22] = system: HT29; assay: NCI one-dose screening, colon cancer HT29; format: cell-based, human; details: 10 μM
[23] = system: SF-268; assay: NCI one-dose screening, CNS cancer SF-268; format: cell-based, human; details: 10 μM
[24] = system: SF-295; assay: NCI one-dose screening, CNS cancer SF-295; format: cell-based, human; details: 10 μM
[25] = system: SF-539; assay: NCI one-dose screening, CNS cancer SF-539; format: cell-based, human; details: 10 μM
[26] = system: SNB-19; assay: NCI one-dose screening, CNS cancer SNB-19; format: cell-based, human; details: 10 μM
[27] = system: SNB-75; assay: NCI one-dose screening, CNS cancer SNB-75; format: cell-based, human; details: 10 μM
[28] = system: U251; assay: NCI one-dose screening, CNS cancer U251; format: cell-based, human; details: 10 μM
[29] = system: LOX IMVI; assay: NCI one-dose screening, melanoma LOX IMVI; format: cell-based, human; details: 10 μM
[30] = system: MALME-3M; assay: NCI one-dose screening, melanoma MALME-3M; format: cell-based, human; details: 10 μM
[31] = system: M14; assay: NCI one-dose screening, melanoma M14; format: cell-based, human; details: 10 μM
[32] = system: UACC-62; assay: NCI one-dose screening, melanoma UACC-62; format: cell-based, human; details: 10 μM
[33] = system: UACC-257; assay: NCI one-dose screening, melanoma UACC-257; format: cell-based, human; details: 10 μM
[34] = system: SK-MEL-2; assay: NCI one-dose screening, melanoma SK-MEL-2; format: cell-based, human; details: 10 μM
[35] = system: SK-MEL-28; assay: NCI one-dose screening, melanoma SK-MEL-28; format: cell-based, human; details: 10 μM
[36] = system: SK-MEL-5; assay: NCI one-dose screening, melanoma SK-MEL-5; format: cell-based, human; details: 10 μM
[37] = system: IGROV1; assay: NCI one-dose screening, ovarian cancer IGROV1; format: cell-based, human; details: 10 μM
[38] = system: OVCAR-3; assay: NCI one-dose screening, ovarian cancer OVCAR-3; format: cell-based, human; details: 10 μM
[39] = system: OVCAR-4; assay: NCI one-dose screening, ovarian cancer OVCAR-4; format: cell-based, human; details: 10 μM
[40] = system: OVCAR-5; assay: NCI one-dose screening, ovarian cancer OVCAR-5; format: cell-based, human; details: 10 μM
[41] = system: OVCAR-8; assay: NCI one-dose screening, ovarian cancer OVCAR-8; format: cell-based, human; details: 10 μM
[42] = system: 786-O; assay: NCI one-dose screening, renal cancer 786-O; format: cell-based, human; details: 10 μM
[43] = system: CAKI-1; assay: NCI one-dose screening, renal cancer CAKI-1; format: cell-based, human; details: 10 μM
[44] = system: ACHN; assay: NCI one-dose screening, renal cancer ACHN; format: cell-based, human; details: 10 μM
[45] = system: SN12C; assay: NCI one-dose screening, renal cancer SN12C; format: cell-based, human; details: 10 μM
[46] = system: TK-10; assay: NCI one-dose screening, renal cancer TK-10; format: cell-based, human; details: 10 μM
[47] = system: UO-31; assay: NCI one-dose screening, renal cancer UO-31; format: cell-based, human; details: 10 μM
[48] = system: RXF, 393; assay: NCI one-dose screening, renal cancer RXF, 393; format: cell-based, human; details: 10 μM
[49] = system: DU145; assay: NCI one-dose screening, prostate cancer DU145; format: cell-based, human; details: 10 μM
[50] = system: PC-3; assay: NCI one-dose screening, prostate cancer PC-3; format: cell-based, human; details: 10 μM
[51] = system: MCF7; assay: NCI one-dose screening, breast cancer MCF7; format: cell-based, human; details: 10 μM
[52] = system: HS 578-T; assay: NCI one-dose screening, breast cancer HS 578-T; format: cell-based, human; details: 10 μM; Breast cancer
[53] = system: MDA-MB-231/ATCC; assay: NCI one-dose screening, breast cancer MDA-MB-231/ATCC; format: cell-based, human; details: 10 μM
[54] = system: MDA-MB-468; assay: NCI one-dose screening, breast cancer MDA-MB-468; format: cell-based, human; details: 10 μM
[55] = system: NCl/ADR-RES; assay: NCI one-dose screening, breast cancer NCl/ADR-RES; format: cell-based, human; details: 10 μM; listed under Ovarian cancer
[56] = system: BT-549; assay: NCI one-dose screening, breast cancer BT-549; format: cell-based, human; details: 10 μM
[57] = system: T-47D; assay: NCI one-dose screening, breast cancer T-47D; format: cell-based, human; details: 10 μM
[58] = system: MDA, -MB-435; assay: NCI one-dose screening, breast cancer MDA, -MB-435; format: cell-based, human; details: 10 μM; listed under Melanoma
[59] = system: human tumor cell lines; assay: NCI one-dose screening, Mean / Delta / Range of growth percent over all tested cell lines; format: cell-based; details: 10 μM

## O=C1c2ccccc2C(=O)c2c1cc(Nc1ccc(Cl)cc1)c1nsnc21 [C60, 4-(4-chloro-phenylamino)anthra[2,1-c] [1,2,5]thiadiazol-6,11-dione]
[1]
  IC50: 9.5 µM
[2]
  Growth Percent CCRF-CEM: 44.80%
[3]
  Growth Percent HL-60(TB): 23.13%
[4]
  Growth Percent MOLT-4: 11.82%
[5]
  Growth Percent SR: 19.52%
[6]
  Growth Percent RPMI-8226: 36.51%
[7]
  Growth Percent K562: 32.82%
[8]
  Growth Percent EKVX: 81.16%
[9]
  Growth Percent HOP-62: 71.23%
[10]
  Growth Percent HOP-92: 88.03%
[11]
  Growth Percent NCI-H226: 66.43%
[12]
  Growth Percent NCI-H23: 58.67%
[13]
  Growth Percent NCI-H322M: 91.20%
[14]
  Growth Percent NCI-H460: 29.27%
[15]
  Growth Percent NCI-H522: 49.77%
[16]
  Growth Percent A549/ATCC: 72.79%
[17]
  Growth Percent COLO 205: 94.87%
[18]
  Growth Percent HCC-2998: 91.26%
[19]
  Growth Percent HCT-116: 40.51%
[20]
  Growth Percent HCT-15: 37.73%
[21]
  Growth Percent KM12: 71.40%
[22]
  Growth Percent HT29: 91.07%
[23]
  Growth Percent SF-268: 63.91%
[24]
  Growth Percent SF-295: 78.76%
[25]
  Growth Percent SF-539: 69.85%
[26]
  Growth Percent SNB-19: 87.03%
[27]
  Growth Percent SNB-75: 69.41%
[28]
  Growth Percent U251: 35.47%
[29]
  Growth Percent LOX IMVI: 27.09%
[30]
  Growth Percent MALME-3M: 61.29%
[31]
  Growth Percent M14: 106.75%
[32]
  Growth Percent UACC-62: 64.65%
[33]
  Growth Percent UACC-257: 69.64%
[34]
  Growth Percent SK-MEL-2: 84.09%
[35]
  Growth Percent SK-MEL-28: 77.13%
[36]
  Growth Percent SK-MEL-5: 29.92%
[37]
  Growth Percent IGROV1: 55.18%
[38]
  Growth Percent OVCAR-3: 76.23%
[39]
  Growth Percent OVCAR-4: 9.58%
[40]
  Growth Percent OVCAR-5: 121.21%
[41]
  Growth Percent OVCAR-8: 45.71%
[42]
  Growth Percent 786-0: 95.95%
[43]
  Growth Percent CAKI-1: 58.59%
[44]
  Growth Percent ACHN: 70.10%
[45]
  Growth Percent SN12C: 81.98%
[46]
  Growth Percent TK-10: 100.37%
[47]
  Growth Percent UO-31: 49.04%
[48]
  Growth Percent RXF 393: 66.60%
[49]
  Growth Percent DU145: 87.28%
[50]
  Growth Percent PC-3: 42.48%
[51]
  Growth Percent MCF7: 59.01%
[52]
  Growth Percent HS 578T: 76.50%
[53]
  Growth Percent MDA-MB-231/ATCC: 57.00%
[54]
  Growth Percent MDA-MB-468: 32.52%
[55]
  Growth Percent NCI/ADR-RES: 55.91%
[56]
  Growth Percent BT-549: 96.78%
[57]
  Growth Percent T-47D: 65.23%
[58]
  Growth Percent MDA-MB-435: 72.21%
[59]; delta over all cell lines
  Growth Percent Delta: 53.61%
[59]; mean over all cell lines
  Growth Percent Mean: 63.19%
[59]; range over all cell lines
  Growth Percent Range: 111.63%

## O=C1c2ccccc2C(=O)c2c1cc(Nc1ccc(Cl)cc1F)c1nsnc21 [C65, 4-(4-chloro-2-fluoro-phenylamino)anthra [2,1-c][1,2,5]thiadiazol-6,11-dione]
[1]
  IC50: > 15 µM
[2]
  Growth Percent CCRF-CEM: 29.84%
[3]
  Growth Percent HL-60(TB): 8.17%
[4]
  Growth Percent MOLT-4: 20.18%
[5]
  Growth Percent SR: 23.58%
[6]
  Growth Percent RPMI-8226: 40.73%
[7]
  Growth Percent K562: 35.29%
[8]
  Growth Percent EKVX: 80.90%
[9]
  Growth Percent HOP-62: 79.67%
[11]
  Growth Percent NCI-H226: 74.35%
[12]
  Growth Percent NCI-H23: 53.59%
[13]
  Growth Percent NCI-H322M: 91.66%
[14]
  Growth Percent NCI-H460: 81.55%
[15]
  Growth Percent NCI-H522: 47.67%
[16]
  Growth Percent A549/ATCC: 69.22%
[17]
  Growth Percent COLO 205: 90.97%
[18]
  Growth Percent HCC-2998: 97.85%
[19]
  Growth Percent HCT-116: 52.51%
[20]
  Growth Percent HCT-15: 45.61%
[21]
  Growth Percent KM12: 83.42%
[22]
  Growth Percent HT29: 98.33%
[23]
  Growth Percent SF-268: 69.25%
[24]
  Growth Percent SF-295: 86.04%
[25]
  Growth Percent SF-539: 75.99%
[26]
  Growth Percent SNB-19: 94.57%
[27]
  Growth Percent SNB-75: 83.19%
[28]
  Growth Percent U251: 43.08%
[29]
  Growth Percent LOX IMVI: 29.97%
[30]
  Growth Percent MALME-3M: 58.74%
[31]
  Growth Percent M14: 118.36%
[32]
  Growth Percent UACC-62: 85.80%
[33]
  Growth Percent UACC-257: 50.45%
[34]
  Growth Percent SK-MEL-2: 72.52%
[35]
  Growth Percent SK-MEL-28: 87.69%
[36]
  Growth Percent SK-MEL-5: 49.49%
[37]
  Growth Percent IGROV1: 69.50%
[38]
  Growth Percent OVCAR-3: 10.25%
[39]
  Growth Percent OVCAR-4: −4.36%
[40]
  Growth Percent OVCAR-5: 114.60%
[41]
  Growth Percent OVCAR-8: 36.77%
[42]
  Growth Percent 786-0: 114.97%
[43]
  Growth Percent CAKI-1: 72.65%
[44]
  Growth Percent ACHN: 74.11%
[45]
  Growth Percent SN12C: 86.43%
[46]
  Growth Percent TK-10: 110.93%
[48]
  Growth Percent RXF 393: 66.49%
[55]
  Growth Percent NCI/ADR-RES: 48.31%
[58]
  Growth Percent MDA-MB-435: 27.37%
